Data reported in the NIST ThermoML archive (doi:10.1016/j.fluid.2018.01.030).

Columns and labels:
[1] = 101.33 kPa, Liquid; for viscosity: Capillary tube (Ostwald / Ubbelohde) method; for mass density: Pycnometric method
[2] = wn = mass fraction of the nth substance listed; settings: for viscosity / mass density: 101 kPa, Liquid; for viscosity: Capillary tube (Ostwald / Ubbelohde) method; for mass density: Pycnometric method; for surface tension liquid-gas: Pendant drop shape

NCCN1CCNCC1 [N-(β-aminoethyl)piperazine)]
[1]
Settings	mass density [kg/m3]	viscosity [mPa·s]
303.2 K	981.129	14.18
313.2 K	977.356	8.669
323.2 K	973.989	5.626
333.2 K	969.461	4.481
343.2 K	965.122	3.697

CN(CCO)CCO [N-methyldiethanolamine] + O
[2]
Settings	mass density, 303.2 K [kg/m3]	mass density, 313.2 K [kg/m3]	mass density, 323.2 K [kg/m3]	mass density, 333.2 K [kg/m3]	viscosity, 303.2 K [mPa·s]	viscosity, 313.2 K [mPa·s]	viscosity, 323.2 K [mPa·s]	viscosity, 333.2 K [mPa·s]
w1 = 0.1	1003.8	999.5	995.2	990.5	1.164	0.912	0.752	0.635
w1 = 0.2	1012.4	1008.4	1003.5	998.6	1.635	1.314	1.06	0.867
w1 = 0.3	1024.5	1019.5	1015.2	1008.2	2.634	1.946	1.517	1.219

OCCNCCO [diethanolamine] + O
surface tension liquid-gas [mN/m], [2]
Settings	313.2 K	323.2 K	333.2 K
w1 = 0.1	60.42	59.18	58.85
w1 = 0.2	63.07	62.23	60.56
w1 = 0.3	61.57	60.13	58.43
